The structures appear in SMILES notation. Bounds are passed on as bounds.

The subject of the first assay is HCV replicon cells. Put plainly: Cell-based HCV replicon assay (replicon RNA level by real time PCR, Taqman). The settings on record: Hepatitis C virus, 72 h, HCV replicon cells, harvested day 3, replicon RNA by real time PCR; given as number; read-out: EC90 (μM) range. A digest of the protocol:
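Readout: ΔCT between NS5B replicon RNA and GAPDH by real-time RT-PCR in lysates harvested on day 3, fitted sigmoidally; EC50 at ΔCT=1, EC90 at ΔCT=3.2. Compounds tested at ten 2-fold dilutions from 25 μM to 1 μM start, 10% FBS, 0.5% DMSO.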
Regarding `CCN(CC)C(=O)OC[C@H]1C[C@@H](Nc2nc(NCC(F)(F)F)nc(C)c2-c2nc3ccccc3s2)[C@H](O)[C@@H]1O` [Example 65], the EC90 was determined as 1 µM. Take `Cc1nc(NCC(C)(C)C)nc(N[C@@H]2C[C@H](CO)[C@@H](O)[C@H]2O)c1-c1cc2cc(OCC(F)(F)F)nc(C)c2o1` [Example 46]: the EC90 was determined as 0.85 µM.

The same assay, now with this note: Hepatitis C virus, 72 h, HCV replicon cells, harvested day 3, replicon RNA by real time PCR; reported as range class; read-out: EC90 (μM) range.
For `Nc1nc(Cl)c(-c2nc3ccccc3s2)c(N[C@@H]2C[C@H](CO)[C@@H](O)[C@H]2O)n1` [Example 105], the EC90 was less than 0.5 µM. Still for that read-out and setting: the figure for `Cc1ccc2oc(-c3c(Cl)nc(N)nc3N[C@@H]3C[C@H](CO)[C@@H](O)[C@H]3O)cc2n1` [Example 16] is 0.5 to 5 µM; for `CCOc1cc2cc(-c3c(Cl)nc(NCCOC)nc3N[C@@H]3C[C@H](CO)[C@@H](O)[C@H]3O)oc2c(C)n1` [Example 21] it is less than 0.5 µM; for `Nc1nc(Cl)c(-c2ccc3c(c2)OCO3)c(N[C@@H]2C[C@H](CO)[C@@H](O)[C@H]2O)n1` [Example 151] it is greater than 5 µM. Same read-out and setting: then `Nc1nc(Cl)c(-c2cc3cc([N+](=O)[O-])cnc3o2)c(N[C@@H]2C[C@H](CO)[C@@H](O)[C@H]2O)n1` [Example 302], with 0.5 to 5 µM; and `Cc1cc2cc(-c3c(Cl)nc(N)nc3N[C@@H]3C[C@H](CO)[C@@H](O)[C@H]3O)oc2cn1` [Example 306], with less than 0.5 µM.

Take `CCCOCCNc1nc(Cl)c(-c2nc3ccccc3s2)c(N[C@@H]2C[C@H](CO)[C@@H](O)[C@H]2O)n1` [Example 226]: the EC90 is less than 0.5 µM. The same measure, in the same setting: then `CCOc1ccc2nc(-c3c(Cl)nc(N(C)C)nc3N[C@@H]3C[C@H](CO)[C@@H](O)[C@H]3O)sc2c1` [Example 203], with greater than 5 µM; and `COCCNc1nc(Cl)c(-c2nc3ccccc3s2)c(N[C@@H]2C[C@H](CO)[C@@H](O)[C@H]2O)n1` [Example 201], with less than 0.5 µM.

The assay is the same for the next values; noted with them: Hepatitis C virus, 72 h, HCV replicon cells, harvested on day 3, replicon RNA by real time PCR; calculated EC90 reported as range class; read-out: EC90 (μM) range.
With `Cc1nc(NC2CCOCC2)nc(N[C@@H]2C[C@H](CO)[C@@H](O)[C@H]2O)c1-c1nc2ccccc2s1` [Example 425], the EC90 is less than 0.5 µM. Turning to `Cc1nc(NCc2cccs2)nc(N[C@@H]2CCC[C@H]2O)c1-c1nc2ccccc2s1` (racemic) [Example 333], the EC90 was less than 0.5 µM. Same read-out and setting: the figure for `COCc1cc2cc(-c3c(C)nc(NCC(C)(C)C)nc3N[C@@H]3C[C@H](CO)[C@@H](O)[C@H]3O)oc2cn1` [Example 715] is less than 0.5 µM; for `Cc1ccc(CNc2nc(C)c(-c3nc4ccccc4s3)c(N[C@@H]3C[C@H](CO)[C@@H](O)[C@H]3O)n2)cc1` [Example 490] it is less than 0.5 µM. Same read-out and setting: then `Cc1nc(NCc2ccco2)nc(N[C@@H]2C[C@H](CO)[C@@H](O)[C@H]2O)c1-c1nc2ccccc2s1` [Example 470], with less than 0.5 µM; and `CCc1cc2cc(-c3c(C)nc(NCc4cc(C)on4)nc3N[C@@H]3C[C@H](CO)[C@@H](O)[C@H]3O)oc2cn1` [Example 703], with less than 0.5 µM.

In the case of `CNc1ccc2sc(-c3c(C)nc(NCC(F)(F)F)nc3N[C@@H]3C[C@H](CO)[C@@H](O)[C@H]3O)nc2c1` [Example 260], the EC90 was less than 0.5 µM. Still for that read-out and setting: the figure for `COC(C)(C)CNc1nc(C)c(-c2nc3ccccc3s2)c(N[C@@H]2C[C@H](CO)[C@@H](O)[C@H]2O)n1` [Example 473] is less than 0.5 µM; for `Cc1nc(NCc2ccc(C(F)(F)F)cc2)nc(N[C@@H]2C[C@H](CO)[C@@H](O)[C@H]2O)c1-c1nc2ccccc2s1` [Example 242] it is less than 0.5 µM; for `Cc1nc(NCc2ccc(C(F)(F)F)cc2)nc(N[C@@H]2C[C@H](CO)[C@H]3OC(C)(C)O[C@H]32)c1-c1nc2ccccc2s1` [Example 241] it is 0.5 to 5 µM. The same measure, in the same setting: the figure for `Cc1ccsc1CNc1nc(C)c(-c2nc3ccccc3s2)c(N[C@@H]2C[C@H](CO)[C@H]3OC(C)(C)O[C@H]32)n1` [Example 476] is less than 0.5 µM; for `Cc1nc(NCc2cccc(C(F)(F)F)c2)nc(N[C@@H]2C[C@H](CO)[C@H]3OC(C)(C)O[C@H]32)c1-c1nc2ccccc2s1` [Example 237] it is 0.5 to 5 µM; for `Cc1nc(NC(CF)CF)nc(N[C@@H]2C[C@H](CO)[C@@H](O)[C@H]2O)c1-c1nc2ccccc2s1` [Example 130] it is greater than 5 µM.

The assay is the same for the next values; noted with them: Hepatitis C virus, 72 h, HCV replicon cells, replicon RNA level by real time PCR (Taqman), day 3; calculated EC90; read-out: EC90 (μM) range.
As to `COc1cc(CCNc2nc(C)c(-c3nc4cnccc4s3)c(N[C@@H]3C[C@H](CO)[C@H]4OC(C)(C)O[C@H]43)n2)cc(OC)c1` [Example 2009], the EC90 is less than 0.5 µM.

The same assay, now with this note: Hepatitis C virus, 72 h, HCV replicon cells, replicon RNA level by real time PCR (Taqman), harvested on day 3; calculated EC90 reported as range class; read-out: EC90 (μM) range.
Turning to `Cc1nc(Nc2cccc(OCc3ccccc3)c2)nc(N[C@@H]2C[C@H](CO)[C@@H](O)[C@H]2O)c1-c1nc2ccccc2s1` [Example 1231], the EC90 was 0.5 to 5 µM. Still for that read-out and setting: the figure for `COc1cccc(Nc2nc(C)c(-c3nc4ccccc4s3)c(N[C@@H]3C[C@H](CO)[C@@H](O)[C@H]3O)n2)c1OC` [Example 1129] is greater than 5 µM; for `Cc1ccc(Nc2nc(C)c(-c3nc4ccccc4s3)c(N[C@@H]3C[C@H](CO)[C@@H](O)[C@H]3O)n2)cc1` [Example 1045] it is greater than 5 µM. For the compound `COC(=O)c1cccc(CNc2nc(C)c(-c3nc4ccccc4s3)c(N[C@@H]3C[C@H](CO)[C@@H](O)[C@H]3O)n2)c1` [Example 1218], the EC90 was 0.5 to 5 µM. On to `Cc1nc(NC(C)(C)c2ccccc2)nc(N[C@@H]2C[C@H](CO)[C@@H](O)[C@H]2O)c1-c1nc2ccccc2s1` [Example 1228], for which the EC90 was 0.5 to 5 µM.

Consider `Cc1nc(NCc2cccs2)nc(N[C@@H]2C[C@H](CNS(C)(=O)=O)[C@@H](O)[C@H]2O)c1-c1nc2ccccc2s1` [Example 1330], for which the EC90 is less than 0.5 µM. With `Cc1nc(NCc2cccc(N)c2)nc(N[C@@H]2C[C@H](CO)[C@@H](O)[C@H]2O)c1-c1nc2ccccc2s1` [Example 1112], the EC90 was 0.5 to 5 µM.

As to `Cc1nc(Nc2ccccc2F)nc(N[C@@H]2C[C@H](CO)[C@@H](O)[C@H]2O)c1-c1nc2ccccc2s1` [Example 1043], the EC90 is greater than 5 µM. Consider `Cc1nc(NCc2nccs2)nc(N[C@@H]2C[C@H](CO)[C@@H](O)[C@H]2O)c1-c1nc2cnccc2s1` [Example 541], for which the EC90 is less than 0.5 µM. Same read-out and setting: the figure for `COc1ccc(Nc2nc(C)c(-c3nc4ccccc4s3)c(N[C@@H]3C[C@H](CO)[C@@H](O)[C@H]3O)n2)c(OC)c1` [Example 1235] is 0.5 to 5 µM; for `Cc1nc(NCc2cccc(CN(C)C)c2)nc(N[C@@H]2C[C@H](CO)[C@@H](O)[C@H]2O)c1-c1nc2ccccc2s1` [Example 1119] it is 0.5 to 5 µM.

Staying with this assay, now noted: Hepatitis C virus, 72 h, HCV replicon cells, replicon RNA level by real time PCR, harvested day 3; read-out: EC90 (μM) range.
As for `CO[C@@H]1[C@H](O)[C@@H](CO)C[C@H]1Nc1nc(NCC(F)(F)F)nc(C)c1-c1nc2ccccc2s1` [Example 1341], the EC90 is less than 0.5 µM.

`Cc1nc(NCC(F)(F)F)nc(N[C@@H]2C[C@H](C)[C@@H](O)[C@H]2O)c1-c1nc2ccccc2s1` [Example 1630]: the EC90 is less than 0.5 µM. For the compound `Cc1nc(NCC2CC2)nc(N[C@@H]2C[C@H](C)[C@@H](O)[C@H]2O)c1-c1nc2cnccc2s1` [Example 1634], the EC90 was less than 0.5 µM. Still for that read-out and setting: the figure for `Cc1nc(N[C@@H](c2ccsc2)C(F)(F)F)nc(N[C@@H]2C[C@H](CO)[C@@H](O)[C@H]2O)c1-c1nc2c(C)nccc2s1` [Example 1361] is less than 0.5 µM; for `Cc1nc(NCC2CC2)nc(N[C@@H]2C[C@H](CO)[C@@H](O)[C@H]2O)c1-c1nc2c(OCC3CC3)nccc2s1` [Example 1338] it is less than 0.5 µM; for `Cc1nc(NCC2CC2)nc(N[C@@H]2CC[C@@H](O)[C@@]2(C)O)c1-c1nc2ccccc2s1` [Example 1701] it is 0.5 to 5 µM.

With `Cc1nc(NS(C)(=O)=O)nc(N[C@@H]2C[C@H](CO)[C@@H](O)[C@H]2O)c1-c1nc2ccccc2s1` [Example 1917], the EC90 is greater than 5 µM.
